# Target: T1, human PPARα (Homo sapiens, UniProt Q07869)
# T1 construct: The coding region of a human PPARα cDNA was inserted downstream of the CMV promoter; expressed in transfected cells; host or cells: Cos-7 cells, transient transfection (pcDNA3.1(−)-PPARα, pRSV-RXRα, 3xPPRE-TK-luc reporter, pRL-TK)
# T1 sequence (Q07869 1-468): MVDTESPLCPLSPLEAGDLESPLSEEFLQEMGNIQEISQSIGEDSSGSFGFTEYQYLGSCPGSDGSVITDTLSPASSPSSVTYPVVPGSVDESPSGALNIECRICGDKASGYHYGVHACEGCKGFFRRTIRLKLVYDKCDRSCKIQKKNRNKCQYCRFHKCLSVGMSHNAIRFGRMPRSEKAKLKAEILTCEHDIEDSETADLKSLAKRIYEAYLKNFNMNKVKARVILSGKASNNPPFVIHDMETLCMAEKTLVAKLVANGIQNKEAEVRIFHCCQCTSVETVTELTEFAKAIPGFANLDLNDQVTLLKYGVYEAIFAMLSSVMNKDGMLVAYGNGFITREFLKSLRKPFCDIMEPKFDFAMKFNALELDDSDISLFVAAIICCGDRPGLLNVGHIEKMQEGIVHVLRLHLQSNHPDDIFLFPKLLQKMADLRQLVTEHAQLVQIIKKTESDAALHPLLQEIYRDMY
# T1 sequence (P19793 1-462 partner): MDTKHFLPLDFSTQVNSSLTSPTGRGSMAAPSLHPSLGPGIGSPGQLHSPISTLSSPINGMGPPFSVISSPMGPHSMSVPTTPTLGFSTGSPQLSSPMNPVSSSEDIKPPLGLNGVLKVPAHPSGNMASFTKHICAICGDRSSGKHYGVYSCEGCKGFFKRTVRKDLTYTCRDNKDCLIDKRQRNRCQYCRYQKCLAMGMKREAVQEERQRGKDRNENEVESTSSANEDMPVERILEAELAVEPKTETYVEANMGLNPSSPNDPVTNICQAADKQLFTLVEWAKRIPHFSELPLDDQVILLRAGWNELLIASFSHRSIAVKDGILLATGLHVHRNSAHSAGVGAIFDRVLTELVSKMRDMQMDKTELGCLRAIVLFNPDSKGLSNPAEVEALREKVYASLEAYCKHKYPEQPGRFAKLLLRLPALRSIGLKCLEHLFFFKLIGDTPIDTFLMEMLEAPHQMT
# Assay: PPARα reporter gene assay (firefly luciferase, transiently transfected Cos-7 cells)
# Assay type: cell-based
# Details: for Pass at (lowest tested administration level at which the test material passed): pass = activation greater than oleic acid at 100 μM, commonly >1.57 times vehicle control, 24 h treatment; for Result (superior activity class achieved): class reached
# Description: One convenient reporter assay for determining whether a fatty acid material is PPARα activating is based upon the firefly luciferase gene.
# Fatty acids were screened to identify PPAR activating fatty acids using a reporter assay.
# This assay relied on ligands binding to and activating the PPARα protein, which, in turn, activated genes under the control of PPAR response elements (PPRE). In the assay, the firefly luciferase gene was cloned behind a promoter containing 3 copies of the fatty acid binding protein PPRE.
# The assay was performed by transient transfection of Cos-7 cells with a mixture of four DNA plasmids. These were:
# 1) PPAR reporter gene construct (Modified pNF-KB-luc reporter vector (Firefly luciferase reporter vector commercially available form Clontech (NF-kB response element, TK minimal promoter, luc^+, f1 origin, pUC origin, amp^r)). A tandem repeat of 3 PPAR response elements (PPREs) corresponding to the PPRE found in the fatty acid binding protein promoter was inserted upstream of the minimal TK promoter to replace the NF-κB response element);
# 2) 2) Over-expressing PPARα construct (Modified pcDNA3.1(−) vector (A mammalian expression vector commercially available from Invitrogen (CMV promoter, f1 origin, SV40 origin, ColE1 origin, neo^r, amp^r)). The coding region of a human PPARα cDNA was inserted downstream of the CMV promoter of pcDNA3.1 (−)). […] The coding region of a human RXRα cDNA has been inserted downstream of the RSV promoter. (Gift of V. K. K. Chatterjee, Addenbrooke's Hospital, Cambridge)) 4) Control luciferase construct (pRL-TK Renilla luciferase reporter vector commercially available from Promega (HSV-TK promoter, T7 promoter, Rluc^+, ori, amp^r)). For the transfection, DNA was made up as a mix of PPAR reporter gene: PPARα: RXRα: control in the ratio 40:4:3:3.
# Cos-7 cells were grown in Dulbecco's modified Eagle's Medium, also herein referred to as DMEM with 10% foetal calf serum, herein also referred to as FCS at 37° C., 5% CO2 to 80% confluency. Cells were then plated out in 24 well plates at 50,000 cells per well and incubated overnight in DMEM with 10% FCS at 37° C., 5% CO2. Cells were then transfected using the LipofectAMINE reagent (GibcoBRL). For each well 0.4 μg of DNA mix (in 25 μl of DMEM) was incubated with 1 μl LipofectAMINE (in 25 μl of DMEM) for 45 minutes. The mixture was then made up to 250 μl per well and added to the cells, which had been washed with 1 ml of DMEM. Cells were then incubated for 5 hours at 37° C., 5% CO2 and 250 μl DMEM with 10% SBCS (charcoal stripped bovine calf serum) added. Cells were incubated for 18 hours at 37° C., 5% CO2 before being treated with the appropriate compound/extract. Test compounds were made up as 1000× stocks (in DMSO or ethanol as appropriate) and diluted into DMEM with 10% SBCS (500 μl per well) immediately before being added to cells. Each treatment was performed in triplicate. The transfection mix was removed from the cells and replaced with the treatment mix, and incubated for 24 hours at 37° C., 5% CO2. Cells were washed with 1 ml of PBS (without calcium or magnesium) and then lysed with 100 μl per well of 1× Passive Lysis Buffer (as supplied with Promega Dual Luciferase assay kit). Lysis was allowed to continue for 15 minutes and then the lysate was assayed for Firefly and Renilla luciferase activity using the Promega Dual Luciferase assay kit. For the assay, 20 μl of lysate was taken and assayed as described in the kit instructions using a MLX microtiter™ plate luminometer (Dynex).
# Firefly luciferase activity (PPAR driven) was normalised against the Renilla luciferase value for that well and the mean calculated for the three wells treated with the same agent. Activity was then expressed as fold activation over the vehicle (DMSO or ethanol) control values for that particular plate.
Pass at (lowest tested administration level at which the test material passed),Result at (lowest administration level at which super or MS activity was achieved),SMILES,Result (superior activity class achieved),"PPARα activation compared with the vehicle control (100 μM, base-line)"
10 μm,,"CCCCCC[C@@H](O)C/C=C\CCCCCCCC(=O)O [Ricinoleic acid, ricinoleic acid]",,
50 μm,,CCCCCC/C=C\CCCCCCCC(=O)O [Palmitoleic acid],,
10 μm,,CCCCCCCCC#CCCCCCCCC(=O)O [Stearolic acid],,
50 μm,100 μm,CCCCCCCCCCC/C=C/CCCCC(=O)O [Petroselaidic acid],super (superior activity [super] (50% higher—at least 2.25 times PPARα activation)),
,,"CCCCCCCC/C=C\CCCCCCCC(=O)O [Oleic acid, reference compound]",,Base-line Oleic acid (1.57 at 100 μM) times
10 μm,,"CCCCCC=CC/C=C\CCCCCCCCCCCC(=O)O [cis 13,16 docosadienoic acid]",,
100 μm,,CC/C=C\CCCCCCCCCCCCCC(=O)O [cis-15-octadecanoic acid],,
10 μm,,"CCC=CCC=CCC=CCC=CCC=CC/C=C\CCC(=O)O [cis-4,7,10,13,16,19 docosahexenoic acid]",,
10 μm,100 μm,CCCCCCCCCCCCCC/C=C\CCCC(=O)O [cis-5 eicosenoic acid],MS (more superior activity [MS] (100% higher—at least 3 times PPARα activation)),
10 μm,,CCCCCC/C=C/CCCCCCCCCC(=O)O [trans vaccenic acid],,
100 μm,100 μm,"CCC=CCC=CC/C=C\CCCCCCCCCC(=O)O [cis-11,14,17 eicosatrienoic acid]",MS (more superior activity [MS] (100% higher—at least 3 times PPARα activation)),
50 μm,,CCCC/C=C\CCCCCCCCCCCC(=O)O [cis-13-octadecenoic acid],,
10 μm,10 μm,CCCCCCCCCC/C=C/CCCCCC(=O)O [Trans-7-octadecenoic acid],MS (more superior activity [MS] (100% higher—at least 3 times PPARα activation)),
25 μm,25 μm,"CC/C=C\C/C=C\C/C=C\C/C=C\CCCCC(=O)O [Stearidonic/octadecatetraenoic acid, stearidonic acid]",super (superior activity [super] (50% higher—at least 2.25 times PPARα activation)),
25 μm,,"CCCC\C=C/C=C/C=C\CCCCCCCC(=O)O [Punicic acid, punicic acid]",,
10 μm,,CCCC/C=C/CCCCCCCCCCCC(=O)O [Trans-13-octadecenoic acid],,
100 μm,100 μm,"CCCCCC=CCC=CC/C=C\CCCCCCC(=O)O [cis-8,11,14 eicosatrienoic acid]",super (superior activity [super] (50% higher—at least 2.25 times PPARα activation)),
25 μm,25 μm,"CC/C=C/C/C=C/C/C=C/CCCCCCCC(=O)O [Linolenelaidic acid, linolenelaidic acid]",super (superior activity [super] (50% higher—at least 2.25 times PPARα activation)),
10 μm,100 μm,CCCCC/C=C\C/C=C\CCCCCCCC(=O)O [Linoleic acid],super (superior activity [super] (50% higher—at least 2.25 times PPARα activation)),
25 μm,,CCCCC/C=C/C/C=C/CCCCCCCC(=O)O [Linolelaidic acid],,
10 μm,100 μm,"CCCCCC=CC/C=C\CCCCCCCCCC(=O)O [cis-11,14-eicosadienoic acid]",MS (more superior activity [MS] (100% higher—at least 3 times PPARα activation)),
100 μm,,CCCCCCCC/C=C\CCCCCCCCCC(=O)O [cis-11 eicosenoic acid],,
25 μm,,CCCCC/C=C\C/C=C\C/C=C\C/C=C\CCCC(=O)O [Arachidonic acid],,
50 μm,100 μm,"CCCCCC/C=C/C=C/CCCCCCCC(=O)O [CLA (t9, t11)]",MS (more superior activity [MS] (100% higher—at least 3 times PPARα activation)),
10 μm,25 μm,"CCCCC/C=C\C/C=C\CC/C=C/CCCC(=O)O [Columbinic acid, columbinic acid]",super (superior activity [super] (50% higher—at least 2.25 times PPARα activation)),

SMILES,Pass at (lowest tested administration level at which the test material passed),Result at (lowest administration level at which super or MS activity was achieved),Result (superior activity class achieved),"PPARα activation compared with the vehicle control (100 μM, base-line)"
CCCCC/C=C/CCCCCCCCCCC(=O)O [trans-12-octadecenoic acid],100 μm,,,
CCCCCCC(O)CCCCCCCCCCC(=O)O (stereo not drawn) [12-hydroxystearic acid],10 μm,25 μm,MS (more superior activity [MS] (100% higher—at least 3 times PPARα activation)),

# Source: patent publication US6713051B2, “Antiperspirant or deodorant compositions” (Unilever Home & Personal Care USA division of Conopco, Inc., priority 2001, dated 2004)
